Laboratory results from patent US20230097883A1, “ERGOTHIONEINE PET COMPOUNDS AND METHODS OF USE THEREOF” (VANDERBILT UNIVERSITY, priority 2021, published 2023).

Key:
5XFAD mice = assay: Rotarod after ERGO treatment; assay type: in vivo, mouse; details: ERGO-treated 5XFAD versus non-treated 5XFAD and WT, three days of testing
Experimental: To address our primary question whether longitudinal consumption of ERGO as a potent antioxidant benefit the brain, three cohorts of animals (n=12 non-treated WT control, n=12 non-treated 5XFAD, and n=18 ERGO-treated 5XFAD) were used (FIG. 3.2A). Starting at the age of 8 weeks, the animals were treated with high doses of ERGO solution (25-50 mg/Kg) formulated in double distilled (dd) water via oral gavage three times a week over the course of eight weeks. To reduce bias in the behavioral experiments with regard to the potential stress during gavage treatment, non-treated animals underwent the identical gavage process with the vehicle, water, only. The efficacy of the therapy was evaluated by behavioral testing, followed by three different non-invasive PET imaging sessions to assess biomarkers related to AD pathology. In addition to assessing Abeta levels and glucose metabolism using the [^11C]PIB and [^18F]FDG probes, respectively; we also tested for the first time whether oxidative stress could be used as an indicator of response to therapy using the [^11C]ERGO PET radioligand. Finally, animals were euthanized, and the brains were collected for immunohistochemical analysis. […]
Neuromuscular ability and motor learning were assessed using a standard rotarod (Ugo Basile). […] Time to fall was recorded automatically when mice fell from the rod onto a base plate.

[1] = 90-minute dynamic PET scanning of [11C]ERGO biodistribution in the brain of 5XFAD mice; assay type: in vivo, mouse
Experimental: The dynamic acquisition was divided into twelve 5 sec frames, four 60 sec frames, five 120 sec frames, three 5 min frames, and six 10 min scans. The data from all possible lines of response (LOR) were saved in the list mode raw data format. The raw data were then binned into 3D sinograms with a span of 3 and ring difference of 47. The images were reconstructed into transaxial slices (128×128×159) with voxel sizes of 0.0815×0.0815×0.0796 cm^3, using the MAP algorithm with 16 subsets, 4 iterations, and a beta of 0.0468. For anatomical co-registration, immediately following the PET scans, the mice received a CT scan in a NanoSPECT/CT (Mediso, Wash. D.C.) at an X-ray beam intensity of 90 mAs and x-ray peak voltage of 45 kVp. The CT images were reconstructed into 170×170×186 voxels at a voxel size of 0.4×0.4×0.4 mm^3. The PET/CT images were uploaded into Amide software (www.sourceforge.com), co-registered to an MRI template made in-house, and volumetric regions-of-interest were drawn around the cortex, hippocampus, striatum, thalamus, and cerebellum in addition to the whole brain. The PET images were normalized to the injected dose, and the time-activity-curves (TACs) of the mean activity within the ROIs were estimated for the entire duration of the scans.
To test the distribution of ERGO non-invasively in vivo, approximately 37 MBq/0.1 mL of [^11C]ERGO probe was given to anesthetized 5XFAD mice (8-month-old, n=4) in single bolus intravenous (I.V.) injection via the lateral tail vein. The administration of the probe was simultaneous with the start of a 90-minute dynamic PET imaging, followed by subsequent CT scan. The PET images were normalized to the injected dose, and the time-activity-curves (TACs) of the mean activity within the ROIs were estimated for the entire duration of the scans. Within 5 min post I.V. injection, [^11C]ERGO can be detected in the brain parenchyma (FIG. 1.5A, top panel). […] Using an age-matched mouse brain template, the positron-emitted signal at different brain regions was quantified using AMIDE software. […]

SMILES | rotarod latency to fall, group differences (5XFAD mice) | time post I.V. injection at which the probe can be detected in the brain parenchyma ([1]; 8-month-old, approx. 37 MBq/0.1 mL single I.V. bolus) | retention of the probe in the brain ([1]; 30 min post radiotracer injection) | regional distribution of the probe in the brain (PET signal) ([1]; approx. 37 MBq/0.1 mL I.V., 90-min dynamic PET)
C[N+](C)(C)[C@@H](Cc1c[nH]c(=S)[nH]1)C(=O)[O-] [ERGO, L-ergothioneine] | no differences among the groups |  |  | 
C[N+](C)([11CH3])[C@@H](Cc1c[nH]c(=S)[nH]1)C(=O)[O-] [[^11C]ERGO] |  | ≤ 5 min | still remained in the brain | high concentration in the cerebellum and cortex
